Drawing on PubChem BioAssay AID330 (DTP/NCI, 2004), this text covers T/C for 20 compounds.

This assay deals with P388 leukemia ip, CD2F1 mice, survival T/C. Nature of the assay: NCI In Vivo Anticancer Drug Screen. Data for tumor model P388 Leukemia (intraperitoneal) in CD2F1 (CDF1) mice. The conditions noted are these: endpoint: median survival time, higher = longer survival. The method in brief: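 Mice carrying the transplanted tumor received test compound or vehicle. Survival was recorded in each group, and the value is the treated-group measurement divided by that of the vehicle-treated control group.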

Setting [1] is: dose: 50.0 mg/kg/injection, schedule: Q01DX009 (ip), vehicle: saline with Tween-80.
[2] abbreviates: dose: 200.0 mg/kg/injection, schedule: Q01DX009 (ip), vehicle: saline with Tween-80.
Where [3] appears, read: dose: 60.0 mg/kg/injection, schedule: Q01DX005 (ip), vehicle: saline with Tween-80.
[4] abbreviates: dose: 120.0 mg/kg/injection, schedule: Q01DX005 (ip), vehicle: saline with Tween-80.
Where [5] appears, read: dose: 240.0 mg/kg/injection, schedule: Q01DX005 (ip), vehicle: saline with Tween-80.
Setting [6] is: dose: 60.0 mg/kg/injection, schedule: Q01DX005 (ip), vehicle: saline.
[7] abbreviates: dose: 120.0 mg/kg/injection, schedule: Q01DX005 (ip), vehicle: saline.
Where [8] appears, read: dose: 240.0 mg/kg/injection, schedule: Q01DX005 (ip), vehicle: saline.
Setting [9] is: dose: 50.0 mg/kg/injection, schedule: Q01DX005 (ip), vehicle: saline with Tween-80.
The mark [10] stands for this setting: dose: 100.0 mg/kg/injection, schedule: Q01DX005 (ip), vehicle: saline with Tween-80.
Setting [11] is: dose: 200.0 mg/kg/injection, schedule: Q01DX005 (ip), vehicle: saline with Tween-80.
Setting [12] is: dose: 60.0 mg/kg/injection, schedule: Q01DX005 (ip), vehicle: Klucel (hydroxypropylcellulose) (HPC).
Where [13] appears, read: dose: 120.0 mg/kg/injection, schedule: Q01DX005 (ip), vehicle: Klucel (hydroxypropylcellulose) (HPC).

Values joined by “and” are separate entries in the source; they are usually repeats but may differ in a detail not shown here. Identical values can stand only once. Toxic doses and inconclusive results are not listed. Peptide text beside a SMILES is read from it.

Consider `O=C(Nc1ccc(F)cc1)N1c2ccccc2SC12CCCC2`, for which the T/C is, setting by setting: under setting [1], 91 % of control; (dose: 100.0 mg/kg/injection, schedule: Q01DX009 (ip), vehicle: saline with Tween-80) 93 % of control; under setting [2], 93 % of control.
In the case of `CCCCCCCCCC1(O)OC(=O)C(C)=C1C` (stereo unspecified), the T/C (dose: 12.5 mg/kg/injection, schedule: Q04DX003 (ip), vehicle: saline with Tween-80) was 115 % of control; the T/C (dose: 25.0 mg/kg/injection, schedule: Q04DX003 (ip), vehicle: saline with Tween-80) is 100 % of control; the T/C (dose: 50.0 mg/kg/injection, schedule: Q04DX003 (ip), vehicle: saline with Tween-80) is 102 % of control.
As to `C=C(C)c1ccc2c(c1)[C@H](OC(=O)c1ccccc1)C[C@H]1[C@](C)(COC(=O)c3ccccc3)CCC[C@]21C`, the T/C under setting [3] is 105 % of control, the T/C under setting [4] is 92 % of control and the T/C under setting [5] is 90 % of control.
Turning to `CCCC1OC(C)(Cc2ccccc2)OCC1CC` (stereo unspecified), the T/C (dose: 100.0 mg/kg/injection, schedule: Q01DX009 (ip), vehicle: saline) is 103 % of control; the T/C (dose: 200.0 mg/kg/injection, schedule: Q01DX009 (ip), vehicle: saline) is 113 % of control; the T/C (dose: 400.0 mg/kg/injection, schedule: Q01DX009 (ip), vehicle: saline) is 109 % of control.
On to `CC(=O)C1=CCC2C3=CCC4=CC(O)[C@@H](O)C[C@]4(C)C3C[C@@H](O)[C@]12C` (stereo partly specified), for which the T/C was 100 % of control (dose: 0.94 mg/kg/injection, schedule: Q01DX005 (ip), vehicle: saline + alcohol); 108 % of control (dose: 1.88 mg/kg/injection, schedule: Q01DX005 (ip), vehicle: saline + alcohol); 108 % of control (dose: 3.75 mg/kg/injection, schedule: Q01DX005 (ip), vehicle: saline + alcohol); 100 % of control (dose: 6.25 mg/kg/injection, schedule: Q01DX005 (ip), vehicle: saline + Tween-80 + alcohol); 104 % of control (dose: 7.5 mg/kg/injection, schedule: Q01DX005 (ip), vehicle: saline + alcohol); 112 % of control (dose: 12.5 mg/kg/injection, schedule: Q01DX005 (ip), vehicle: saline + Tween-80 + alcohol). Besides, the T/C (dose: 25.0 mg/kg/injection, schedule: Q01DX005 (ip), vehicle: saline + Tween-80 + alcohol) was 109 % of control and the T/C (dose: 50.0 mg/kg/injection, schedule: Q01DX005 (ip), vehicle: saline + Tween-80 + alcohol) is 118 % of control.
In the case of `O=c1c2c(nc3n1CCSCC3)NCCC2`, the T/C was 104 % of control (dose: 100.0 mg/kg/injection, schedule: Q04DX002 (ip), vehicle: Klucel (hydroxypropylcellulose) (HPC)); 98 % of control (dose: 200.0 mg/kg/injection, schedule: Q04DX002 (ip), vehicle: Klucel (hydroxypropylcellulose) (HPC)); 100 % of control (dose: 400.0 mg/kg/injection, schedule: Q04DX002 (ip), vehicle: Klucel (hydroxypropylcellulose) (HPC)).
As to `Cc1ccc(N(C(=O)c2ccc(Cl)cc2)C(=S)C#N)cc1`, the T/C was 89 % of control (dose: 60.0 mg/kg/injection, schedule: Q01DX005 (ip), vehicle: Klucel + Tween-80); 95 % of control (dose: 120.0 mg/kg/injection, schedule: Q01DX005 (ip), vehicle: Klucel + Tween-80); 103 % of control (dose: 240.0 mg/kg/injection, schedule: Q01DX005 (ip), vehicle: Klucel + Tween-80).
Regarding `NC(CCCC(N)C(=O)c1ccccc1)C(=O)c1ccccc1` (stereo unspecified), the T/C under setting [3] is 92 % of control, the T/C under setting [4] was 91 % of control and the T/C under setting [5] is 92 % of control.
As for `COc1nc(NC2OC(CO)C(O)C(O)C2O)c(Cl)c(=O)[nH]1` (stereo unspecified), the T/C reads like this: under setting [6], 97 % of control; under setting [7], 94 % of control; under setting [8], 102 % of control.
With `CCCCCCCCCCCCOC(=O)c1ccc(O)cc1`, the T/C reads like this: (dose: 50.0 mg/kg/injection, schedule: Q01DX009 (ip), vehicle: Klucel (hydroxypropylcellulose) (HPC)) 98 % of control; (dose: 100.0 mg/kg/injection, schedule: Q01DX009 (ip), vehicle: Klucel (hydroxypropylcellulose) (HPC)) 94 % of control.
Turning to `CC(C)C(NC(=O)C(N)CCCN=C(N)N)C(=O)O` (stereo not drawn) (H-Arg-Val-OH; configuration not given here), the T/C reads like this: under setting [9], 91 % of control; under setting [10], 100 % of control; under setting [11], 100 % of control.
Regarding `CN(C)c1ccc(C2(c3ccc(N(C)C)cc3)NNC(=O)c3ccccc32)cc1`, the T/C by setting is: under setting [9], 93 % of control; under setting [10], 90 % of control; under setting [11], 86 % of control.
Regarding `O=C1c2ccncc2C(=O)N1CCO`, the T/C is 103 % of control under setting [6], 104 % of control under setting [7] and 101 % of control under setting [8].
Regarding `CCOC(=O)C(C(=O)OCC)=S1c2ccccc2Sc2ccccc21`, the T/C under setting [12] was 90 % of control and the T/C under setting [13] is 89 % of control.
Consider `COc1nc2c(ccn2C2OC(COC(C)=O)C(OC(C)=O)C(OC(C)=O)C2OC(C)=O)c(=O)n1C` (stereo unspecified), for which the T/C was 100 % of control under setting [3], 104 % of control under setting [4] and 95 % of control under setting [5].
Consider `CCCCOCN(CCc1ccccc1)COCCCC`, for which the T/C was 118 % of control under setting [1] and 152 % of control under setting [2].
`CC[C@@]1(O)C(=O)OCc2c1cc1n(c2=O)Cc2cc3ccccc3nc2-1`: the T/C reads like this: (dose: 0.25 mg/kg/injection, schedule: Q04DX003 (ip), vehicle: other) 109 % of control; (dose: 0.5 mg/kg/injection, schedule: Q04DX003 (ip), vehicle: other) 119 % of control and 122 % of control; (dose: 0.79 mg/kg/injection, schedule: Q04DX003 (ip), vehicle: other) 151 % of control; (dose: 1.0 mg/kg/injection, schedule: Q04DX003 (ip), vehicle: other) 163 % of control; (dose: 1.5 mg/kg/injection, schedule: Q01DX005 (ip), vehicle: saline with Tween-80) 153 % of control and 161 % of control (2×); (dose: 1.57 mg/kg/injection, schedule: Q04DX003 (ip), vehicle: other) 161 % of control. Besides, the T/C is 150 % of control (dose: 1.6 mg/kg/injection, schedule: Q04DX003 (ip), vehicle: saline with Tween-80); 157 % of control and 158 % of control (dose: 2.0 mg/kg/injection, schedule: Q04DX003 (ip), vehicle: other); 187 % of control (dose: 2.1 mg/kg/injection, schedule: Q01DX005 (ip), vehicle: saline with Tween-80); 181 % of control (dose: 2.5 mg/kg/injection, schedule: Q04DX003 (ip), vehicle: saline with Tween-80); 192 % of control and 194 % of control and 196 % of control (dose: 3.0 mg/kg/injection, schedule: Q01DX005 (ip), vehicle: saline with Tween-80); 278 % of control (dose: 3.13 mg/kg/injection, schedule: Q04DX003 (ip), vehicle: other). Besides, the T/C is, setting by setting: (dose: 3.6 mg/kg/injection, schedule: Q01DX005 (ip), vehicle: saline with Tween-80) 277 % of control; (dose: 4.0 mg/kg/injection, schedule: Q04DX003 (ip), vehicle: other) 155 % of control and 197 % of control and 245 % of control; (dose: 5.0 mg/kg/injection, schedule: Q04DX002 (ip), vehicle: saline with Tween-80) 175 % of control; (dose: 8.0 mg/kg/injection, schedule: Q04DX003 (ip), vehicle: other) 92 % of control; (dose: 12.0 mg/kg/injection, schedule: Q01DX005 (ip), vehicle: saline with Tween-80) 87 % of control.
Regarding `COC(C)(C)[CH]([Hg][Cl])n1ccccc1=O` (stereo unspecified), the T/C by setting is: (dose: 6.25 mg/kg/injection, schedule: Q04DX003 (ip), vehicle: Klucel (hydroxypropylcellulose) (HPC)) 100 % of control; (dose: 12.5 mg/kg/injection, schedule: Q04DX003 (ip), vehicle: Klucel (hydroxypropylcellulose) (HPC)) 93 % of control; (dose: 25.0 mg/kg/injection, schedule: Q04DX003 (ip), vehicle: Klucel (hydroxypropylcellulose) (HPC)) 99 % of control and 100 % of control.
For `C=C(C)C(=O)OC1CCCC2C(=C)C(=O)OC12` (stereo unspecified), the T/C runs as follows: under setting [12], 105 % of control; under setting [13], 100 % of control; (dose: 240.0 mg/kg/injection, schedule: Q01DX005 (ip), vehicle: Klucel (hydroxypropylcellulose) (HPC)) 107 % of control.
For `Cc1nc2cc(C)n3c(C)nnc3n2n1`, the T/C was 105 % of control under setting [9], 100 % of control under setting [10] and 100 % of control under setting [11].
